No end group written: not given here.

Type in all cases: cell-based, Staphylococcus aureus
The subject of assay [1] is S. aureus ATCC 33591 (MRSA). The assay is described as follows: Membrane depolarization DiSC3(5). Conditions: 2 × MIC, DiSC3(5) fluorescence. As for the experimental part:
(§1) Membrane depolarization activities of omiganan and retro-omiganan were evaluated using DiSC3(5) (3,3′-dipropylthiadicarbocyanine iodide; Thermo Fischer Scientific, Invitrogen™). The S. aureus ATCC 25923 and S. aureus ATCC 33591 strains were grown at 37 °C up to a mid-log phase (approx. 4 h) in the Mueller–Hinton broth. The cultures were centrifuged (3500 rpm, 7 min) and washed with a 20 mM glucose solution in HEPES buffer (5 mM, pH 7.2). The cells were resuspended in a 5 mM HEPES buffer supplemented with 20 mM glucose and 100 mM KCl (pH 7.2) to an OD 0.05 at 600 nm. The final concentration of the dye was 0.4 μM. The fluorescence was monitored at 20 °C (λex 620 nm and λem 678 nm) with Fluoroskan Ascent FL (Thermo Fisher Scientific) fluorometer. […] A HEPES solution with glucose was used as a negative control. The measurements were conducted twice to ensure the reproducibility.

Assay [2] concerns S. aureus ATCC 25923. Description: Membrane depolarization DiSC3(5). Conditions: 2 × MIC, DiSC3(5) fluorescence. The protocol:
as §1

The subject of assay [3] is S. aureus ATCC 33591 (MRSA). The assay is described as follows: Biofilm formation in peptide-coated PDMS channels under flow. Conditions: peptide co-immobilized on pDa-coated PDMS channel, 24 h flow. The protocol: (§2) Formation of the biofilm inside the PDMS flow chambers was performed using three peristaltic pumps working simultaneously (LP-pump, Kamush, Lipopharm, Poland) and sterile Tygon® 3350 silicone hoses (2.4 × 0.8 × 0.8 mm) with a length of 30 and 50 cm for inlet and outlet, respectively. Bacterial suspensions were prepared (0.5 × 10^7 CFU/mL) in sterile 50-mL test tubes, which were placed in a heating block at 37 °C. Before experiments, all channels were assessed for tightness and sterilized using a 70% 2-propanol solution (10 min, flow rate 1 mL/min) and rinsed with sterile PBS solution (10 min, flow 0.1 mL/min). The formation of biofilm inside the channels was divided into three stages: (1) adhesion—at this stage S. aureus suspensions were passed through the channels for 4 h at a flow rate of 0.1 mL/min; (2) rinsing—the previously used hoses were replaced with new sterile ones, and the channels were rinsed with sterile PBS solution for 10 min at a flow rate of 0.1 mL/min; (3) biofilm growth—after flushing the channels, the silicone hoses were placed in tubes with MHB medium, which was passed through the channels for 24 h at a flow rate of 0.1 mL/min. All experiments included growth and sterility controls.
(§3) Incorporation of omiganan and retro-omiganan into PDMS channels was conducted using a polydopamine (pDa) coating, as previously described with a slight modification resulting from flow-based experimental model. To do this, the pDa coating was done by rinsing the channels with a solution of dopamine hydrochloride (Sigma-Aldrich, 2 mg/mL) in 10 mM bicin buffer (pH 8.5) for 18 h, 0.3 mL/min in a closed system (Fig. 3A). Then, the channels were rinsed with a sterile solution of demineralized water. Further co-immobilization was conducted using new, sterile silicone hoses connected to flow chambers and test tubes containing aqueous solutions of the peptides (100 µg/mL) pumped through the channels in a closed system for 6 h at 0.3 mL/min (Fig. 3B). Assessment of peptide binding was performed using liquid chromatography (RP-HPLC), by comparing the content of the compounds in the solution before and after incorporation. Waters Alliance e2695 system with a Waters 2998 PDA Detector (software-Empower 3, Waters, Milford, MA, USA) was used. All analyses were carried out on a Waters X-Bridge Shield RP-18 column (3.0 × 100 mm, 3.5 μm particle size, 130 Å pore size) with UV detection at 214 nm and samples (10 μL) were eluted with a linear 10–90% acetonitrile gradient in deionized water over 15 min at 25.0 ± 0.1 °C. The mobile phase flow rate was 0.5 mL/min. Both eluents contained 0.1% (v/v) of TFA. Each peptide sample was analyzed in triplicate. Such functionalized PDMS channels were used for further studies on biofilm formation. […]

In assay [4] the test system is S. aureus ATCC 25923. The assay is described as above. Conditions: peptide co-immobilized on pDa-coated PDMS channel, 24 h flow. As for the experimental part:
as §2, §3

For KRRWPWWPWRLI-NH2 [Retro-Omiganan], the membrane depolarization entry (in assay [1]; with S. aureus ATCC 25923 [2]) was “cause depolarization of S. aureus membranes immediately after the addition” in each case. Moreover, the “reduction of bacteria forming biofilm relative to control” value is 96% in assay [3] and 81% in the assay with S. aureus ATCC 25923 [4].

Consider ILRWPWWPWRRK-NH2 [Omiganan], for which the membrane depolarization entry (in assay [1]; with S. aureus ATCC 25923 [2]) was “cause depolarization of S. aureus membranes immediately after the addition” throughout. In addition, the “reduction of bacteria forming biofilm relative to control” value in assay [3] is 98%; in the assay on S. aureus ATCC 25923 [4], 71%.

The values above are taken from paper PMC12055641, “The Study of Antistaphylococcal Potential of Omiganan and Retro-Omiganan Under Flow Conditions” (Probiotics and Antimicrobial Proteins, 2024).
